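Tested at 5 concentrations; 48 h exposure; 96-well plates; endpoints linearly interpolated, else capped at highest concentration. TGI marks complete inhibition of growth.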
How the values were obtained:
Experiment in all cases: NCI tumour cell line growth inhibition, 48 h
[1] = system: HT29 colon
[2] = system: KM20L2 colon
[3] = system: M14 melanoma
[4] = system: RPMI-8226 leukemia
[5] = system: SK-MEL-5 melanoma
[6] = system: SK-OV-3 ovarian
[7] = system: SNB-78 CNS
[8] = system: SF-539 CNS
[9] = system: IGROV1 ovarian
[10] = system: TK-10 renal
[11] = system: SNB-19 CNS
[12] = system: MCF7 breast
[13] = system: HCT-15 colon
[14] = system: MDA-N
[15] = system: A498 renal
[16] = system: SN12C renal
[17] = system: HOP-62 NSCLC
[18] = system: CCRF-CEM leukemia
[19] = system: SF-268 CNS
[20] = system: XF 498 CNS
[21] = system: SK-MEL-28 melanoma
[22] = system: OVCAR-5 ovarian
[23] = system: UACC-62 melanoma
[24] = system: DMS 114 small cell lung
[25] = system: DLD-1 colon
[26] = system: OVCAR-4 ovarian
[27] = system: DU-145 prostate
[28] = system: SR leukemia
[29] = system: NCI/ADR-RES ovarian
[30] = system: HOP-18 NSCLC
[31] = system: LXFL 529 NSCLC
[32] = system: T-47D breast
[33] = system: RXF 393 renal
[34] = system: EKVX NSCLC
[35] = system: UO-31 renal
[36] = system: MDA-MB-435
[37] = system: MDA-MB-231 breast
[38] = system: COLO 205 colon
[39] = system: A549 NSCLC
[40] = system: BT-549 breast
[41] = system: KM12 colon
[42] = system: M19-MEL melanoma
[43] = system: NCI-H23 lung
[44] = system: SK-MEL-2 melanoma
[45] = system: HCC-2998 colon
[46] = system: HOP-92 NSCLC
[47] = system: HCT-116 colon
[48] = system: LOX IMVI melanoma
[49] = system: ACHN renal
[50] = system: SF-295 CNS
[51] = system: OVCAR-8 ovarian
[52] = system: NCI-H226 lung
[53] = system: PC-3 prostate
[54] = system: SNB-75 CNS
[55] = system: NCI-H522 lung
[56] = system: K-562 leukemia
[57] = system: U251 CNS
[58] = system: MALME-3M melanoma
[59] = system: CAKI-1 renal
[60] = system: SW-620 colon
[61] = system: UACC-257 melanoma
[62] = system: 786-0 renal
[63] = system: DMS 273 small cell lung
[64] = system: OVCAR-3 ovarian
[65] = system: NCI-H460 lung
[66] = system: HL-60(TB) leukemia
[67] = system: MOLT-4 leukemia
[68] = system: RXF-631 renal

C=C1C(=O)OC2C(C)C3C=CC(=O)[C@@]3(C)C(OC(=O)/C(C)=C/C)C1[C@@H]2OC(C)=O (some centres not stated)
TGI [1]: 1.18 µM
TGI [2]: 2.99 µM
TGI [3]: 1.96 µM
TGI [4]: 3.16 µM
TGI [5]: 2.78 µM
TGI [6]: 3.52 µM
TGI [7]: 2.8 µM
TGI [8]: 0.987 µM
TGI [9]: 2.05 µM
TGI [10]: 1.57 µM
TGI [11]: 4.13 µM
TGI [12]: 1.37 µM
TGI [13]: 0.782 µM
TGI [14]: 0.738 µM
TGI [15]: 2.81 µM
TGI [16]: 1.24 µM
TGI [17]: 2.86 µM
TGI [18]: > 28.7 µM
TGI [19]: 3.22 µM
TGI [20]: 2.53 µM
TGI [21]: 1.76 µM
TGI [22]: 3.32 µM
TGI [23]: 0.81 µM
TGI [24]: 2.37 µM
TGI [25]: 1.79 µM
TGI [26]: 2.53 µM
TGI [27]: 3.23 µM
TGI [28]: 3.61 µM
TGI [29]: 0.73 µM
TGI [30]: 3.28 µM
TGI [31]: 1.16 µM
TGI [32]: 2.13 µM
TGI [33]: 0.61 µM
TGI [34]: 1.27 µM
TGI [35]: 2.48 µM
TGI [36]: 0.86 µM
TGI [37]: 0.678 µM
TGI [38]: 0.906 µM
TGI [39]: 3.8 µM
TGI [40]: 0.682 µM
TGI [41]: 3.68 µM
TGI [42]: 1.84 µM
TGI [43]: 1.29 µM
TGI [44]: 1.18 µM
TGI [45]: 3.2 µM
TGI [46]: 1.56 µM
TGI [47]: 0.769 µM
TGI [48]: 0.521 µM
TGI [49]: 1.68 µM
TGI [50]: 2.81 µM
TGI [51]: 0.628 µM
TGI [52]: 4.42 µM
TGI [53]: 1.87 µM
TGI [54]: 2.98 µM
TGI [55]: 0.334 µM
TGI [56]: 16 µM
TGI [57]: 2.36 µM
TGI [58]: 0.539 µM
TGI [59]: 1.61 µM
TGI [60]: 0.694 µM
TGI [61]: 1.66 µM
TGI [62]: 0.63 µM
TGI [63]: 1.81 µM
TGI [64]: 0.744 µM
TGI [65]: 1.33 µM

CC(=O)O[C@H]1CC[C@@]2(C)C(=CC[C@@H]3C2CC[C@]2(C)Nc4oncc4CC32)C1 (some centres not stated)
TGI [1]: > 100 µM
TGI [2]: > 100 µM
TGI [3]: > 100 µM
TGI [4]: 43.8 µM
TGI [5]: 33.2 µM
TGI [6]: > 100 µM
TGI [8]: > 100 µM
TGI [9]: > 100 µM
TGI [10]: > 100 µM
TGI [13]: > 100 µM
TGI [15]: > 100 µM
TGI [17]: > 100 µM
TGI [18]: 23 µM
TGI [20]: 84.4 µM
TGI [21]: > 100 µM
TGI [22]: > 100 µM
TGI [66]: 31.9 µM
TGI [23]: 99 µM
TGI [25]: > 100 µM
TGI [26]: 34.4 µM
TGI [31]: 26.5 µM
TGI [33]: > 100 µM
TGI [67]: 28.9 µM
TGI [34]: > 100 µM
TGI [35]: 70.7 µM
TGI [39]: 83.6 µM
TGI [41]: 61.4 µM
TGI [42]: > 100 µM
TGI [43]: > 100 µM
TGI [44]: > 100 µM
TGI [45]: > 100 µM
TGI [47]: 30.4 µM
TGI [49]: 72.4 µM
TGI [50]: > 100 µM
TGI [51]: > 100 µM
TGI [52]: 49.5 µM
TGI [54]: > 100 µM
TGI [56]: 21.1 µM
TGI [57]: > 100 µM
TGI [58]: 82.2 µM
TGI [59]: > 100 µM
TGI [60]: > 100 µM
TGI [61]: > 100 µM
TGI [62]: > 100 µM
TGI [68]: > 100 µM
TGI [63]: 73.5 µM
TGI [64]: 30.7 µM
TGI [65]: 48.8 µM

CCCCOC(=O)N[C@H]1CCc2cc(OC)c(OC)c(OC)c2-c2ccc(SC)c(=O)cc21
TGI [1]: < 0.0281 µM
TGI [2]: < 0.01 µM
TGI [3]: 15.6 µM
TGI [4]: 17.1 µM
TGI [5]: < 0.01 µM
TGI [6]: 7.24 µM
TGI [7]: > 4.64 µM
TGI [8]: < 0.01 µM
TGI [9]: 92.5 µM
TGI [10]: 52.4 µM
TGI [11]: 73 µM
TGI [12]: 26 µM
TGI [13]: > 15.8 µM
TGI [14]: < 0.01 µM
TGI [15]: 27.6 µM
TGI [16]: 34.2 µM
TGI [17]: 40.3 µM
TGI [18]: 35.8 µM
TGI [19]: 25.1 µM
TGI [20]: 2.55 µM
TGI [21]: 16.2 µM
TGI [22]: 91.8 µM
TGI [66]: 0.398 µM
TGI [23]: 24.8 µM
TGI [24]: < 0.01 µM
TGI [25]: > 100 µM
TGI [26]: > 96.5 µM
TGI [27]: < 0.01 µM
TGI [28]: > 43 µM
TGI [30]: > 100 µM
TGI [31]: 29.5 µM
TGI [32]: 58.7 µM
TGI [33]: 2.07 µM
TGI [67]: 57.8 µM
TGI [34]: > 100 µM
TGI [35]: 49.5 µM
TGI [36]: < 0.01 µM
TGI [37]: 2.8 µM
TGI [38]: < 0.01 µM
TGI [39]: 98.9 µM
TGI [41]: < 0.0464 µM
TGI [42]: 65.7 µM
TGI [43]: 8.09 µM
TGI [44]: 2.02 µM
TGI [45]: 2.29 µM
TGI [46]: 30.9 µM
TGI [47]: 1.18 µM
TGI [48]: 20.9 µM
TGI [49]: 13.1 µM
TGI [50]: < 0.0361 µM
TGI [51]: 12.7 µM
TGI [52]: 0.357 µM
TGI [53]: > 81 µM
TGI [54]: 2.99 µM
TGI [55]: < 0.01 µM
TGI [56]: 65.1 µM
TGI [57]: 3.87 µM
TGI [58]: 46.6 µM
TGI [59]: 25.6 µM
TGI [60]: 79 µM
TGI [61]: 31.4 µM
TGI [62]: 25.5 µM
TGI [64]: < 0.0329 µM
TGI [65]: 0.115 µM

Reference: PubChem BioAssay (NCI)
